Reference: patent publication US20170313669A1, “LACTONE COMPOUNDS AND METHODS OF MAKING AND USING SAME” (THE SCRIPPS RESEARCH INSTITUTE, priority 2015, published 2017)

What was measured:
Type in all cases: biochemical
[1] = Lipid substrate hydrolysis assay, mock-transfected HEK293T membrane proteome; conditions: substrate 100 μM
Protocol: (§1) All the lipid species used in the lipid substrate hydrolysis assays were purchased from Avanti Polar Lipids Inc unless mentioned otherwise. In general, 20 μg of proteome was incubated with 100 μM lipid in a reaction volume of 100 μL in PBS at 30° C. with constant shaking. After 30 minutes the reaction was quenched with 350 μL of 2:1 (vol/vol) CHCl3: MeOH, doped with 0.5 nmol internal standard (17:1 FFA). The mixture was vortexed, and the centrifuged at 2800×g for 5 minutes to separate the aqueous (top) and organic (bottom) phase. The organic phase was collected. 5 μL of formic acid was added to the aqueous phase, and extracted again using 350 μL of 2:1 (vol/vol) CHCl3: MeOH using above mentioned protocol. The organic phase was collected, and pooled with the organic phase from the first extraction. […] All the data was collected and analyzed using the Agilent MassHunter Workstation software version B.04 using the Data Acquisition and Quantitative Analysis programs respectively. Measuring the area under the peak, and normalizing it to the internal standard quantified the product release for the lipid substrate hydrolysis assays. […] Some products from the substrate hydrolysis assays were detected in positive ion mode for qualitative identification. […]

ABHD16A (mouse) = biological target: T1, ABHD16A (mouse) (Mus musculus, UniProt Q9Z1Q2); experiment: Lipid substrate hydrolysis assay, murine ABHD16A-transfected HEK293T membrane proteome; conditions: substrate 100 μM
T1 construct: full-length cDNA of human ABHD16A (Open Biosystems Catalog # MHS6278-202758315) or murine ABHD16A (Open Biosystems Catalog # MMM1013-202760516) in pCMV-SPORT6 vector; host or cells: HEK293T
T1 sequence (Q9Z1Q2 whole entry): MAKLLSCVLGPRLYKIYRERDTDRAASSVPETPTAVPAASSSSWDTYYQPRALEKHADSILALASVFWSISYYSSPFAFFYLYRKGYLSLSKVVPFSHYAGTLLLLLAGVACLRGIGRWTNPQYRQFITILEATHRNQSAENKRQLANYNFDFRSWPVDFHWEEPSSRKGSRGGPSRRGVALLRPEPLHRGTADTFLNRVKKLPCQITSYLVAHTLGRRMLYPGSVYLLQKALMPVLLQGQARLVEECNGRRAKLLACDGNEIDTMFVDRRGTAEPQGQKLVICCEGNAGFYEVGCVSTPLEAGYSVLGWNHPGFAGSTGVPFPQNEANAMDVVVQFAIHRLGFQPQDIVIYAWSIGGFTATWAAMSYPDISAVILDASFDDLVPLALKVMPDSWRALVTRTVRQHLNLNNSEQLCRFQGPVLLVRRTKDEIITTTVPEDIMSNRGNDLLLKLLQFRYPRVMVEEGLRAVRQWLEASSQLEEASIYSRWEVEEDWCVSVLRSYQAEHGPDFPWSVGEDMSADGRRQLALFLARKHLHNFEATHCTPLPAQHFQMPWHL
Protocol: as §1

[2] = biological target: T2, ABHD16A (WT and S355A mutant) (Homo sapiens, UniProt O95870); experiment: Activity-dependent labeling of ABHD16A by WHP01 in transfected HEK293T lysates; conditions: transfected HEK293T cell lysates
T2 construct: All full-length cDNA constructs coding for serine hydrolases ABHD16A, and ABHD12 were purchased from Open Biosystems; FLAG; expressed in transfected cells; host or cells: HEK293T
T2 sequence (O95870 whole entry S355A): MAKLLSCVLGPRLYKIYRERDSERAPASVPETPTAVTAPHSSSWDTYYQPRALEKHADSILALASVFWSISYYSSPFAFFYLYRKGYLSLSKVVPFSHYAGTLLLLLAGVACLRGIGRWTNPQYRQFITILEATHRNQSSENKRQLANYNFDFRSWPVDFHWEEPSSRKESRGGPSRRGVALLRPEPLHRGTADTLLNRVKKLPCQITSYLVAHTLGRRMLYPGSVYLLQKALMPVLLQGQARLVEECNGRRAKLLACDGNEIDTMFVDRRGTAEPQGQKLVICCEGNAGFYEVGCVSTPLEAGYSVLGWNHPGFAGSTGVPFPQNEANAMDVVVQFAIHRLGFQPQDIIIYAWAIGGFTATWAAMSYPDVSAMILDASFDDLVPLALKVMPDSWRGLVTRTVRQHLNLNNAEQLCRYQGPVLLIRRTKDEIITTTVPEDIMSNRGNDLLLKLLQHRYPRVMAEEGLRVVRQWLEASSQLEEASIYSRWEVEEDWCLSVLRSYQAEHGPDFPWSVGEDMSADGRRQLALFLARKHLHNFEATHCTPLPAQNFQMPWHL

| Molecule | Lipase activity, Mock, Mean [1] [nmol/mg/min] | Lipase activity, ABHD16A, Mean (ABHD16A (mouse)) [nmol/mg/min] | labeling of ABHD16A [2] |
| --- | --- | --- | --- |
| PG 16:0/18:1 | 3.8 | 12.5 |  |
| CCCCCCCCCCCCCC1OC(=O)/C1=C\CCCC(=O)NCCCCCNC(=O)c1ccc(-c2c3ccc(=[N+](C)C)cc-3oc3cc(N(C)C)ccc23)c(C(=O)[O-])c1 (stereo not drawn) [WHP01, (Z)-2-(6-(dimethylamino)-3-(dimethyliminio)-3H-xanthen-9-yl)-5-((5-(5-(2-oxo-4-tridecyloxetan-3-ylidene)pentanamido)pentyl)carbamoyl)benzoate] |  |  | labeled WT-ABHD16A but not the catalytic serine S355A mutant |
